From patent US20210214399A1, “PH LOW INSERTION PEPTIDE AND COMPOSITION THEREOF” (priority 2017, published 2021)

What was measured:
[1] = background art, pHLIP derivatives produced by sequence adjustment; cited from earlier work
[2] = tested on: Human colorectal cancer cell line SW480; settings: for insertion into the surface of the cell (fluorescence on cell membrane): acid solution environment, PBS pH 6.3, alexa647 marked peptide; for insertion into the surface of the cell (fluorescence on cell membrane) / membrane insertion ability: 37° C. 1 hour; for membrane insertion ability: neutral solution environment, PBS pH 7.4, alexa647 marked peptide
Protocol: (1) The SW480 cells in logarithmic phase were collected, the culture solution was discarded, and the cells were washed twice with saline. […] The cells were transferred to a 10 ml test tube to centrifuge at 1000 rpm for 5 min, the supernatant was removed, and 1 ml of RPMI 1640 medium containing 10% fetal bovine serum was added to resuspend and mix the cells. After 10 μl of the cell suspension was added to a cell counting plate and counted, a certain amount of the cell suspension was added into the laser confocal cell culture dish, which was then adjusted to a cell system of 5* 10^5, 1 ml with complete medium, and put into a cell incubator and incubated overnight.
(2) The culture solution was prepared using 1 mol/L hydrochloric acid and a PBS buffer at pH 7.4. Hydrochloric acid was added dropwise to the PBS buffer, and finally the pH value of the buffer was titrated to 6.3.
(3) When the SW480 cells adhered after being cultured overnight, the supernatant of the medium was removed, and the cells were washed twice with a PBS buffer at pH 7.4.
(4) The PBS buffer in the cell culture dish was removed, 1 ml of the previously prepared mixed culture buffers of PBS at pH 6.3 and 7.4 and peptides were added to the two dishes, respectively, and 1 ml of the PBS medium at pH 7.4 without peptides was added to another control dish, and all of them were put in a 37° C. cell incubator to incubate for 1 hour.
(5) After incubation, the supernatant of the peptide-containing PBS culture solution was removed, and the peptide-containing PBS culture solution was washed three times with peptide-free PBS buffers with different pH values in each group, and then added with a PBS buffer at pH 7.4.
(6) The prepared cell culture dishes were placed under the laser confocal microscope (647 mm excitation wavelength) to observe the fluorescence expression on the surface of the cell membrane.

[3] = tested on: Mouse colon cancer cells CT26 tumors; settings: for fluorescent marking of tumor tissues by 72 hours: 72 hours after intravenous injection; for marking of tumors (in vivo imaging): CT26 subcutaneous tumors, alexa647 marked peptide intravenously, imaging at 24, 48, 72 hours
Protocol: Mouse colon cancer cells CT26 were subcutaneously inoculated into Balb/c mice, and when the tumors grew to about 1 cm, saline (N.S.), alexa647 marked p-var7, alexa647 marked var7 were intravenously injected respectively with a dosage of 60 μM/100 pL N. S., in vivo imaging (excitation with Cy5.5 wavelength) was performed at 24, 48, 72 hours with supine position photography. The mice were sacrificed for tumor imaging.

[4] = tested on: 4T1 cells tumors; settings: fusion peptide 1 mg/kg intravenous every other day combined with CD20 monoclonal antibody GA101 30 mg/kg intraperitoneal twice a week; 4T1 tumors, Balb/c mice
Protocol: 4T1 cells were inoculated into mouse breasts, 2×10^6 cells/mouse, 50 μl volume.
(§1) When the tumor grows to 50mm^3, treatment was started.
(§2) The tumor volume and mouse body weight were measured every 3 days.
When the tumor volume in the control group reached 1000 mm^3, the administration was terminated.
When the tumor grows to 50mm^3, treatment was started. There are four groups: CD20-var3/GA101 group (10), GA101 group (5), CD20-var3 group (5), PBS group (10).
Administration method: CD20-var3, 1 mg/kg, intravenous injection, every other day; GA101, 30 mg/kg, intraperitoneal injection, twice a week. The tumor volume and mouse body weight were measured every 3 days.
as §1, §2

[5] = tested on: A549 tumors; settings: Herceptin 10 mg/kg intraperitoneal combined with Her2 D4-pHLIP 40 μM/100 μl intravenous, nude mice
Protocol: A549 was inoculated into nude mice, when the tumor diameter grew to 1 cm, the tumor was aseptically peeled off, shredded, homogenized, and sieved to make a single cell suspension which was cultured and amplified in 1640 complete medium. The cells were injected into the subcutaneous abdomen of the nude mice with 1×10^6 cells/body, when the tumor diameter grew to 0.5 to 1 cm, the oversized and undersized tumors were removed, and mice with substantially the same tumor size were grouped. There were 4 groups: injection group of the Her2 D4-pHLIP alone, 10; injection group of the Her2 D4-pHLIP combined with the herceptin, 10; injection group of the Her2 D4-pHLIP combined with the IgG1, 10; injection group of normal saline N. S, 10. The tumor size was measured every 3 days.
Administration method: Her2 D4-pHLIP administration: each was injected intravenously with 40 μM/100 μl every time, starting from the day after the grouping was completed, once a day, and once every 2 days; antibody administration: Intraperitoneal injection, the dose was 10 mg/kg, the injection frequency was the same as the Her2 D4-pHLIP, and the injection time was 6 to 12 hours after the administration of the Her2 D4-pHLIP until the end.

Substance: ACDDQNPWRAYLDLLFPTDTLLLDLLW (listed as Homo sapiens) [var3]
- tumor targeting [1]: improve its tumor targeting

Substance: ACEEQNPGGGSACEEQNPWARYLEWLFPTETLLLEL [p-var7]
- insertion into the surface of the cell (fluorescence on cell membrane) [2]: could effectively insert into the surface of human colon cancer cell SW480
- membrane insertion ability [2]: lost
- selectivity in the acidic microenvironment ([2]; p-var7 compared with var7, pH 6.3 vs 7.4): more selective in the acidic microenvironment of tumor tissues
- fluorescent marking of tumor tissues by 72 hours ([3]; CT26 tumors, Balb/c mice): still showed strong fluorescent marking
- marking of tumors (in vivo imaging) ([3]; Balb/c mice): could mark tumors
- marking ability, compared ([3]; p-var7 compared with var7, CT26 tumors, Balb/c mice): stronger marking ability
- accumulation of fluorescence in the tumor sites, persistence ([3]; previous experiment results of in vivo imaging, same dose 40 μM/100 μl intravenously): basically degraded by the third day

Substance: ACEEQNPWARYLEWLFPTETLLLEL [var7, reference compound]
- insertion into the surface of the cell (fluorescence on cell membrane) [2]: could effectively insert into the surface of human colon cancer cell SW480
- membrane insertion ability [2]: retained the ability
- tumor targeting [1]: maintaining good targeting
- fluorescence intensity as time went by ([3]; 24 to 72 hours, var7 compared with p-var7, CT26 tumors, Balb/c mice): decayed more significantly
- fluorescent marking of tumor tissues by 72 hours ([3]; CT26 tumors, Balb/c mice): only a few markers were visible in the tumor tissues
- marking of tumors (in vivo imaging) ([3]; Balb/c mice): could mark tumors

Substance: NIYNCEPANP SEKN SP S TQYC Y SIQ GGG SA S EEQNPWARYLEWLFP TETLLLEL [CD20-var7]
- tumor cell growth [4]: can significantly inhibit tumor cells growth

Substance: NIYNCEPANP SEKN SP S TQYCYSIQGGGSACDDQNPWRAYLDLLFPTDTLLLD LLW [CD20-var3]
- tumor cell growth [4]: can significantly inhibit tumor cell growth

Substance: NIYNCEPANP SEKN SP S TQYCYSIQGGGSACEQNPIYWARYADWLF TTPLLLL DLALLVDADEG [CD20-WT]
- tumor cell growth [4]: can significantly inhibit tumor cell growth

Substance: trastuzumab [Herceptin]
- tumor growth [5]: significantly inhibited tumor growth
